# Source: US20250092039A1, “GLUTARIMIDE-CONTAINING PAN-KRAS-MUTANT DEGRADER COMPOUNDS AND USES THEREOF” (Tiger Biotherapeutics Inc., priority 2022, published 2025)
# Where two headings read alike, the source gives them in different places.
# Tests used:
# KRAS-G12V/RAF1 = KRAS-G12V/RAF1 (Homo sapiens (Human), UniProt P01116, G12V); assay: KRAS/RAF1 binding inhibition assay (AlphaScreen)
# How it was run: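 Binding of GppNHp-loaded KRAS G12V to the RAF1 RBD was measured by AlphaScreen with test compound present in 2% DMSO (final), 60 min incubation at 4° C. Signals were converted to % inhibition versus DMSO, and IC50 was obtained by variable-slope nonlinear regression.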
# KRAS G12V = KRAS G12V (Homo sapiens (Human), UniProt P01116, G12V); assay: KRAS G12V degradation in SW620 cells (Western blot, DC50); type: cell-based; conditions: 24 hours
# Sequence of KRAS G12V (P01116-2 other isoform, or with tags, fused parts or gaps G12V): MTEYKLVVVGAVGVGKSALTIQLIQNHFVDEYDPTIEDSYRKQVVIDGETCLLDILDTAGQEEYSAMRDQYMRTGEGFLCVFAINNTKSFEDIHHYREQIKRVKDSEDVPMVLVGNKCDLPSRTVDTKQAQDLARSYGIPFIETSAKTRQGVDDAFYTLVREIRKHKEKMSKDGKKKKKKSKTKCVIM
# How it was run: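 SW620 cells (homozygous KRAS G12V) were treated with compound for 24 hours at 37° C. KRAS in lysates was measured by Western blot with fluorescent secondary antibodies and expressed relative to DMSO vehicle (100%). DC50 came from a four-parameter variable-slope dose-response fit.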
# SW620 cells = assay: 3D cell growth inhibition of SW620 cells carrying endogenous KRAS G12V mutation (CellTiter-Glo 3D, GI50); type: cell-based; conditions: Homo sapiens, SW-620, 144 h, read-out: SW620 3D cell growth GI50
# Protocol: The following day, the test compound was administered to the cells by using 1000× compound stock solution prepared in DMSO at various concentrations. 1000× compound stock solution was first diluted in culturing medium to 10×, then 10 μL compound medium was added to each well in the cell plates. After administration of the compound, the cells were then incubated at 37° C. for 6 days. Upon completion, the plates were equilibrated at room temperature for approximately 10 minutes. 100 μL of CellTiter-Glo® 3D Reagent (Promega) was added to each well. The plates were then incubated at room temperature for 30 minutes and luminescence was recorded by EnSpire plate reader (PerkinElmer).
# Sequence of KRAS-G12V/RAF1 (P01116-2 other isoform, or with tags, fused parts or gaps G12V): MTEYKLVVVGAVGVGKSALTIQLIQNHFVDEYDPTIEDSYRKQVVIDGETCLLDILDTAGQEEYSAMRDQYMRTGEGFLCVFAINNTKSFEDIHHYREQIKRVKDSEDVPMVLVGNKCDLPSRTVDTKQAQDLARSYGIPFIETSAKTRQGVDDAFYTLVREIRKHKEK
Compound,IC50 (KRAS-G12V/RAF1) [nM],DC50 (KRAS G12V) [nM],"GI50 (SW620 cells; SW620 cells, 6 days) [nM]",GI50 (SW620 cells) [nM]
"CCc1c(F)ccc2cc(O)cc(-c3ncc4c(N5CCC[C@@](C)(O)C5)nc(OCC5(CN6CCC(F)(CN7CCC(N8CCN(c9ccc%10c(c9)CN([C@H]9CCC(=O)NC9=O)C%10=O)CC8)CC7)CC6)CC5)nc4c3F)c12 [Compound 72, (S)-3-(5-(4-(1-((1-((1-(((7-(8-ethyl-7-fluoro-3-hydroxynaphthalen-1-yl)-8-fluoro-4-((R)-3-hydroxy-3-methylpiperidin-1-yl)pyrido[4,3-d]pyrimidin-2-yl)oxy)methyl)cyclopropyl)methyl)-4-fluoropiperidin-4-yl)methyl)piperidin-4-yl)piperazin-1-yl)-1-oxoisoindolin-2-yl)piperidine-2,6-dione]",< 20,< 1,< 10,
"CCc1c(F)ccc2cc(O)cc(-c3ncc4c(N5CCC[C@@](C)(O)C5)nc(OCC5(CN6CCC(N7CCC(N8CCN(c9ccc%10c(c9)CN([C@H]9CCC(=O)NC9=O)C%10=O)CC8)CC7)CC6)CC5)nc4c3F)c12 [Compound 147, (S)-3-(5-(4-(1′-((1-(((7-(8-ethyl-7-fluoro-3-hydroxynaphthalen-1-yl)-8-fluoro-4-((R)-3-hydroxy-3-methylpiperidin-1-yl)pyrido[4,3-d]pyrimidin-2-yl)oxy)methyl)cyclopropyl)methyl)-[1,4′-bipiperidin]-4-yl)piperazin-1-yl)-1-oxoisoindolin-2-yl)piperidine-2,6-dione]",< 20,< 1,< 10,
"CCc1cccc2cc(O)cc(-c3ncc4c(N5CCC[C@@](C)(O)C5)nc(OCC5(CN6CCC(OC7CC8(CCN(c9ccc%10c(c9)CN(C9CCC(=O)NC9=O)C%10=O)CC8)C7)CC6)CC5)nc4c3F)c12 (stereo partly drawn) [Compound 181, 3-(5-(2-((1-((1-(((7-(8-ethyl-3-hydroxynaphthalen-1-yl)-8-fluoro-4-((R)-3-hydroxy-3-methylpiperidin-1-yl)pyrido[4,3-d]pyrimidin-2-yl)oxy)methyl)cyclopropyl)methyl)piperidin-4-yl)oxy)-7-azaspiro[3.5]nonan-7-yl)-1-oxoisoindolin-2-yl)piperidine-2,6-dione]",> 200,< 1,< 10,
"C[C@@]1(O)CCCN(c2nc(OCC3(CN4CCC(CN5CCN(c6ccc7c(c6)CN([C@H]6CCC(=O)NC6=O)C7=O)CC5)CC4)CC3)nc3c(F)c(-c4cc(O)cc5cccc(Cl)c45)ncc23)C1 [Compound 123, (S)-3-(5-(4-((1-((1-(((7-(8-chloro-3-hydroxynaphthalen-1-yl)-8-fluoro-4-((R)-3-hydroxy-3-methylpiperidin-1-yl)pyrido[4,3-d]pyrimidin-2-yl)oxy)methyl)cyclopropyl)methyl)piperidin-4-yl)methyl)piperazin-1-yl)-1-oxoisoindolin-2-yl)piperidine-2,6-dione]",20 to 200,1 to 10,10 to 100,
"CCc1cccc2cc(O)cc(-c3ncc4c(N5CCC[C@@](C)(O)C5)nc(OCC5(CN6CCC7(CC6)CC(F)(CN6CCN(c8ccc9c(c8)CN([C@H]8CCC(=O)NC8=O)C9=O)CC6)C7)CC5)nc4c3F)c12 [Compound 173, (S)-3-(5-(4-((7-((1-(((7-(8-ethyl-3-hydroxynaphthalen-1-yl)-8-fluoro-4-((R)-3-hydroxy-3-methylpiperidin-1-yl)pyrido[4,3-d]pyrimidin-2-yl)oxy)methyl)cyclopropyl)methyl)-2-fluoro-7-azaspiro[3.5]nonan-2-yl)methyl)piperazin-1-yl)-1-oxoisoindolin-2-yl)piperidine-2.6-dione]",20 to 200,< 1,< 10,
"CCc1c(F)ccc2cc(O)cc(-c3ncc4c(N5CCC[C@@](C)(O)C5)nc(OCC5(CN6CCN(CC7CN(c8ccc9c(c8)CN(C8CCC(=O)NC8=O)C9=O)C7)CC6)CC5)nc4c3F)c12 (stereo partly drawn) [Compound 133, 3-[5-[3-[[4-[[1-[[7-(8-ethyl-7-fluoro-3-hydroxy-1-naphthyl)-8-fluoro-4-[(3R)-3-hydroxy-3-methyl-1-piperidyl]pyrido[4,3-d]pyrimidin-2-yl]oxymethyl]cyclopropyl]methyl]piperazin-1-yl]methyl]azetidin-1-yl]-1-oxo-isoindolin-2-yl]piperidine-2,6-dione]",20 to 200,< 1,,< 10
"CCc1cccc2cc(O)cc(-c3ncc4c(N(C)[C@@H]5C[C@H]5F)nc(OCC5(CN6CCC(CN7CCN(c8ccc9c(c8)CN([C@H]8CCC(=O)NC8=O)C9=O)CC7)CC6)CC5)nc4c3F)c12 [Compound 29, (S)-3-(5-(4-((1-((1-(((7-(8-ethyl-3-hydroxynaphthalen-1-yl)-8-fluoro-4-(((1R,2R)-2-fluorocyclopropyl)(methyl)amino)pyrido[4,3-d]pyrimidin-2-yl)oxy)methyl)cyclopropyl)methyl)piperidin-4-yl)methyl)piperazin-1-yl)-1-oxoisoindolin-2-yl)piperidine-2,6-dione]",> 200,,10 to 100,
"CCc1c(F)ccc2cc(O)cc(-c3ncc4c(N5CCC[C@]6(CCO6)C5)nc(OCC5(CN6CCC(CN7CCN(c8ccc9c(c8)CN([C@H]8CCC(=O)NC8=O)C9=O)CC7)CC6)CC5)nc4c3F)c12 [Compound 44, (S)-3-(5-(4-((1-((1-(((7-(8-ethyl-7-fluoro-3-hydroxynaphthalen-1-yl)-8-fluoro-4-((S)-1-oxa-6-azaspiro[3.5]nonan-6-yl)pyrido[4,3-d]pyrimidin-2-yl)oxy)methyl)cyclopropyl)methyl)piperidin-4-yl)methyl)piperazin-1-yl)-1-oxoisoindolin-2-yl)piperidine-2,6-dione]",20 to 200,,< 10,
"CCc1c(F)ccc2cc(O)cc(-c3ncc4c(N5CCC[C@@]6(CCO6)C5)nc(OCC5(CN6CCC(CN7CCN(c8ccc9c(c8)CN([C@H]8CCC(=O)NC8=O)C9=O)CC7)CC6)CC5)nc4c3F)c12 [Compound 45, (S)-3-(5-(4-((1-((1-(((7-(8-ethyl-7-fluoro-3-hydroxynaphthalen-1-yl)-8-fluoro-4-((R)-1-oxa-6-azaspiro[3.5]nonan-6-yl)pyrido[4,3-d]pyrimidin-2-yl)oxy)methyl)cyclopropyl)methyl)piperidin-4-yl)methyl)piperazin-1-yl)-1-oxoisoindolin-2-yl)piperidine-2,6-dione]",> 200,,> 100,
"CCc1c(F)ccc2cc(O)cc(-c3ncc4c(N5CCC[C@@](C)(O)C5)nc(OCC5(CN6CC7(CC(N8CCN(c9ccc%10c(c9)CN([C@H]9CCC(=O)NC9=O)C%10=O)CC8)C7)C6)CC5)nc4c3F)c12 [Compound 122, (S)-3-(5-(4-(2-((1-(((7-(8-ethyl-7-fluoro-3-hydroxynaphthalen-1-yl)-8-fluoro-4-((R)-3-hydroxy-3-methylpiperidin-1-yl)pyrido[4,3-d]pyrimidin-2-yl)oxy)methyl)cyclopropyl)methyl)-2-azaspiro[3.3]heptan-6-yl)piperazin-1-yl)-1-oxoisoindolin-2-yl)piperidine-2,6-dione]",,1 to 10,< 10,
"C[C@@]1(O)CCCN(c2nc(OCC3(CN4CCC5(CCC(N6CCN(c7ccc8c(c7)CN([C@H]7CCC(=O)NC7=O)C8=O)CC6)CC5)CC4)CC3)nc3c(F)c(-c4cc(N)cc5ccc(F)c(F)c45)ncc23)C1 [Compound 35, (S)-3-(5-(4-(3-((1-(((7-(3-amino-7,8-difluoronaphthalen-1-yl)-8-fluoro-4-((R)-3-hydroxy-3-methylpiperidin-1-yl)pyrido[4,3-d]pyrimidin-2-yl)oxy)methyl)cyclopropyl)methyl)-3-azaspiro[5.5]undecan-9-yl)piperazin-1-yl)-1-oxoisoindolin-2-yl)piperidine-2,6-dione]",,> 100,> 100,
"C[C@@]1(O)CCCN(c2nc(OCC3(CN4CCC(CN5CCN(c6ccc7c(c6)CN([C@H]6CCC(=O)NC6=O)C7=O)CC5)CC4)CC3)nc3c(F)c(-c4cc(O)cc5ccc(F)c(Cl)c45)ncc23)C1 [Compound 156, (S)-3-(5-(4-((1-((1-(((7-(8-chloro-7-fluoro-3-hydroxynaphthalen-1-yl)-8-fluoro-4-((R)-3-hydroxy-3-methylpiperidin-1-yl)pyrido[4,3-d]pyrimidin-2-yl)oxy)methyl)cyclopropyl)methyl)piperidin-4-yl)methyl)piperazin-1-yl)-1-oxoisoindolin-2-yl)piperidine-2,6-dione]",,< 1,< 10,
"CCc1c(F)ccc2cc(O)cc(-c3ncc4c(N5CCC[C@@](C)(O)C5)nc(OCC5(CN6CCC7(CC6)CC(C)(N6CCN(c8ccc9c(c8)CN(C8CCC(=O)NC8=O)C9=O)CC6)C7)CC5)nc4c3F)c12 (stereo partly drawn) [Compound 159, 3-[5-[4-[7-[[1-[[7-(8-ethyl-7-fluoro-3-hydroxy-1-naphthyl)-8-fluoro-4-[(3R)-3-hydroxy-3-methyl-1-piperidyl]pyrido[4,3-d]pyrimidin-2-yl]oxymethyl]cyclopropyl]methyl]-2-methyl-7-azaspiro[3.5]nonan-2-yl]piperazin-1-yl]-1-oxo-isoindolin-2-yl]piperidine-2,6-dione]",,< 1,< 10,
